The record followed here is PubChem BioAssay (NCI).

Values joined by “and” are separate entries in the source; they are usually repeats but may differ in a detail not shown here. Identical values can stand only once.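 All cell lines were grown in 96-well plates and treated with compound for 48 hours. At the GI50, growth is halved. TGI is the concentration that stops growth completely.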 Where a SMILES comes first, the peptide text is derived from it. The star is where a group is joined. Boc = CC(C)(C)OC(=O)*

In the first assay the test system is NCI-H23 lung. Put plainly: NCI tumour cell line growth inhibition, 48 h.
On to `CC(C)Sc1nc(C#N)cc2c1CCCC2`, for which the TGI is more than 100 µM.
In the case of `CCOP(=O)(OCC)/C(C#N)=C/c1cnc(-c2ccccc2)[nH]1`, the TGI was more than 100 µM.
For `CC(=O)OCC1OC(OC(C)(C)CC/C=C(\C)[C@@H]2C/C=C(\C)CC/C=C(\C)CC2)C(O)C(O)C1OC(C)=O` (some centres not stated), the GI50 was 46.2 µM and 12.7 µM; the TGI was > 100 µM and 25.3 µM.
`O=C(CN1c2ccccc2Sc2ccccc21)N1CCNCC1` showed a TGI of more than 100 µM.
The compound `CN(C)CCCOC(=O)C(c1ccccc1)C1(O)CCSCC1` (configuration not stated) yielded a TGI of more than 100 µM.
For the compound `OCC1CCCCCCCCCCC12SCCCS2` (configuration not stated), the TGI is more than 100 µM.
On to `COCOC1/C=C/CCCCC2=C(C)C=C(C1)O2` (configuration not stated), for which the TGI is more than 100 µM.
`C=C(C)C12CC(COC(=O)c3ccccc3)C34OC5(OC1C3C1OC1(CO)C(O)C1(O)C(OC(=O)c3ccccc3)C(C)C(C(C)CCCCCCC5O)C14)O2` (configuration not stated) yielded a TGI of more than 100 µM.
`O=C(O)c1cc2c(cc1CC(Cc1ccc3c(c1)CCC3)C(=O)O)CCC2` (configuration not stated) came in with a TGI of more than 100 µM.
`COc1cc(-c2cc(=O)c3cc4c(cc3[nH]2)OCO4)cc(OC)c1O` showed a TGI of more than 10 µM.
`C[C@@]12[C@H]3CC[C@@H]1[C@H](O)C(=O)N2CC3` displayed a TGI of more than 100 µM.
In turn, `COC(=O)CNC(=O)C(Cc1ccccc1)NC(=O)C(CCSC)NC(=O)C(Cc1ccc(O)cc1)NC(=O)OC(C)(C)C` (configuration not stated) (Boc-YMFG-OMe; configuration not given here) gave a TGI of more than 100 µM.
As to `O=C1CCC[C@@H]2NC[C@@H](c3ccc4c(c3)OCO4)[C@H]12`, the TGI is more than 25 µM.
On the same count and under the same terms, as for `Cc1ccc([C@@H]2[C@@H](C(=O)c3ccccn3)[C@H](c3ccc(C)cc3)C[C@](O)(c3ccccn3)[C@H]2C(=O)c2ccccn2)cc1`, the figure is more than 100 µM; as for `O=C(Nc1ccc(Br)cc1)c1c(-c2ccccc2)c2ccc(O)cc2oc1=O`, more than 10 µM.
The same measure, in the same setting: with `O=C1C(Cl)=C(N2CCN(C3=C(Cl)C(=O)c4ccccc4C3=O)CC2)C(=O)c2ccccc21` the figure was 3.11 µM; with `CCOc1cc(NC(C)=O)ccc1C(=O)NNC(=O)c1ccccc1OC(C)=O`, more than 100 µM; with `O=C(O)CN(CCNC(=O)OCC1c2ccccc2-c2ccccc21)CCNC(=O)OCC1c2ccccc2-c2ccccc21`, 49.6 µM.

A further assay relates to DU-145 prostate. Nature of the assay: NCI tumour cell line growth inhibition, 48 h.
`CC(C)Sc1nc(C#N)cc2c1CCCC2` returned a TGI of more than 100 µM.
Turning to `CCOP(=O)(OCC)/C(C#N)=C/c1cnc(-c2ccccc2)[nH]1`, the TGI was more than 100 µM.
On to `CC(=O)OCC1OC(OC(C)(C)CC/C=C(\C)[C@@H]2C/C=C(\C)CC/C=C(\C)CC2)C(O)C(O)C1OC(C)=O` (some centres not stated), for which the GI50 was > 76.3 µM and 17 µM; the TGI was > 100 µM and 32.1 µM.
Consider `O=C(CN1c2ccccc2Sc2ccccc21)N1CCNCC1`, for which the TGI was more than 100 µM.
In the case of `CN(C)CCCOC(=O)C(c1ccccc1)C1(O)CCSCC1` (configuration not stated), the TGI is more than 100 µM.
`OCC1CCCCCCCCCCC12SCCCS2` (configuration not stated): the TGI was more than 100 µM.
`COCOC1/C=C/CCCCC2=C(C)C=C(C1)O2` (configuration not stated): the TGI was more than 100 µM.
In turn, `C=C(C)C12CC(COC(=O)c3ccccc3)C34OC5(OC1C3C1OC1(CO)C(O)C1(O)C(OC(=O)c3ccccc3)C(C)C(C(C)CCCCCCC5O)C14)O2` (configuration not stated) gave a TGI of more than 100 µM.
On the same count and under the same terms, as for `O=C(O)c1cc2c(cc1CC(Cc1ccc3c(c1)CCC3)C(=O)O)CCC2` (configuration not stated), the figure is more than 100 µM; as for `COc1cc(-c2cc(=O)c3cc4c(cc3[nH]2)OCO4)cc(OC)c1O`, more than 10 µM.
Compound `C[C@@]12[C@H]3CC[C@@H]1[C@H](O)C(=O)N2CC3` showed a TGI of more than 100 µM.
Compound `COC(=O)CNC(=O)C(Cc1ccccc1)NC(=O)C(CCSC)NC(=O)C(Cc1ccc(O)cc1)NC(=O)OC(C)(C)C` (configuration not stated) (Boc-YMFG-OMe; configuration not given here) registered a TGI of more than 100 µM.
`O=C1CCC[C@@H]2NC[C@@H](c3ccc4c(c3)OCO4)[C@H]12` came in with a TGI of more than 25 µM.
Compound `Cc1ccc([C@@H]2[C@@H](C(=O)c3ccccn3)[C@H](c3ccc(C)cc3)C[C@](O)(c3ccccn3)[C@H]2C(=O)c2ccccn2)cc1` gave a TGI of more than 100 µM.
`O=C(Nc1ccc(Br)cc1)c1c(-c2ccccc2)c2ccc(O)cc2oc1=O` showed a TGI of more than 10 µM.
The compound `O=C1C(Cl)=C(N2CCN(C3=C(Cl)C(=O)c4ccccc4C3=O)CC2)C(=O)c2ccccc21` gave a TGI of 14.4 µM.
The compound `CCOc1cc(NC(C)=O)ccc1C(=O)NNC(=O)c1ccccc1OC(C)=O` registered a TGI of more than 67.7 µM.
Still for that read-out and setting: with `O=C(O)CN(CCNC(=O)OCC1c2ccccc2-c2ccccc21)CCNC(=O)OCC1c2ccccc2-c2ccccc21` the figure was 35.8 µM.

For another assay, the system named is NCI/ADR-RES ovarian. Nature of the assay: NCI tumour cell line growth inhibition, 48 h.
`CC(C)Sc1nc(C#N)cc2c1CCCC2`: the TGI was more than 100 µM.
Regarding `CCOP(=O)(OCC)/C(C#N)=C/c1cnc(-c2ccccc2)[nH]1`, the TGI was more than 100 µM.
Regarding `CC(=O)OCC1OC(OC(C)(C)CC/C=C(\C)[C@@H]2C/C=C(\C)CC/C=C(\C)CC2)C(O)C(O)C1OC(C)=O` (some centres not stated), the GI50 is 45.8 µM and 19.5 µM; the TGI is > 100 µM and 38.7 µM.
In turn, `O=C(CN1c2ccccc2Sc2ccccc21)N1CCNCC1` gave a TGI of more than 100 µM.
With `CN(C)CCCOC(=O)C(c1ccccc1)C1(O)CCSCC1` (configuration not stated), the TGI was more than 100 µM.
`OCC1CCCCCCCCCCC12SCCCS2` (configuration not stated) showed a TGI of more than 100 µM.
`COCOC1/C=C/CCCCC2=C(C)C=C(C1)O2` (configuration not stated): the TGI was more than 100 µM.
For the compound `C=C(C)C12CC(COC(=O)c3ccccc3)C34OC5(OC1C3C1OC1(CO)C(O)C1(O)C(OC(=O)c3ccccc3)C(C)C(C(C)CCCCCCC5O)C14)O2` (configuration not stated), the TGI is more than 100 µM.
